PMC12388504, “Antiparasitic Effect of Polyphenols and Terpenes from Natural Products Against Trypanosoma cruzi and Leishmania mexicana” (Metabolites, 2025)
Where two headings read alike, the source gives them in different places.

Key:
[1] = system: L. mexicana promastigotes FCQEPS native isolate; test: Anti-Leishmania mexicana activity, promastigotes FCQEPS native isolate (MTT); assay type: cell-based; conditions: 48 h, read-out: L. mexicana IC50 FCQEPS
Experimental: (§1) The IC50 was determined using the Probit statistical tool. Each sample was assayed in triplicate in three independent experiments.

[2] = system: T. cruzi epimastigotes A1 strain; test: Anti-Trypanosoma cruzi activity, epimastigotes A1 strain (MTT); assay type: cell-based; conditions: for IC50: 48 h
Experimental: (§2) Epimastigotes from A1 and the NINOA strains were used to evaluate the trypanocidal activity. Both strains were maintained in liver infusion tryptose (LIT) medium, supplemented with 10% heat-inactivated FBS and 100 U/mL of penicillin plus 100 μg/mL of streptomycin. They were preserved by transferring 1 × 10^6 parasites/mL into a new culture medium every week. […] All compounds were initially prepared at 10 mg/mL, using dimethyl sulfoxide (DMSO) 0.2% as diluent. […] T. cruzi epimastigotes (1 × 10^6/well) were cultured in 96-well microliter plates and incubated for 48 h at 28 °C with the drugs at different concentrations in a final volume of 200 μL. DMSO 0.2% was included as a negative control. […] All assays were carried out in triplicate. The IC50 values were determined by Probit analysis.

[3] = system: T. cruzi epimastigotes NINOA strain; test: Anti-Trypanosoma cruzi activity, epimastigotes NINOA strain (MTT); assay type: cell-based; conditions: for IC50: 48 h, read-out: T. cruzi IC50 NINOA
Experimental: as §2

[4] = system: L. mexicana promastigotes MNYC/BZ/62/M379 (M379) strain; test: Anti-Leishmania mexicana activity, promastigotes M379 reference strain (MTT); assay type: cell-based; conditions: for IC50: 48 h, read-out: L. mexicana IC50 M379
Experimental: as §1

[5] = Cytotoxic analysis against J774.2 macrophages (MTT); conditions: mouse
Experimental: (§3) The assay was performed on mouse macrophages from the J774.2 cell line that were cultured in RPMI medium supplemented with 10% SFB, […] penicillin, […] streptomycin, and glutamine (2 mM) at 37 °C and in a 5% CO2 atmosphere. The medium was replaced at 2–3-day intervals. […] Cells in the presence of the maximum concentration of DMSO (0.2%) were included as a negative control; the metabolic activity of the cells was determined following the MTT method. The percentage of cell viability was calculated, and the half-maximal cytotoxic concentration (CC50) was determined by Probit analysis. Three independent assays were performed in triplicate each.

T. cruzi = conditions: cited from earlier work
[6] = system: J774.2 macrophage cell line; test: Cytotoxic analysis against J774.2 macrophages (MTT); conditions: for cytotoxicity (in words): J774.2 macrophages
Experimental: as §3

[7] = system: Tulahuén strain of T. cruzi; set-up: method as in PMID 35698116; conditions: in words; cited from earlier work
[8] = Leishmania mexicana, promastigotes, FCQEPS native isolate, MTT
[9] = Trypanosoma cruzi, epimastigotes, A1 strain, MTT, read-out: T. cruzi IC50 A1
[10] = Trypanosoma cruzi, epimastigotes, NINOA strain, MTT
[11] = Leishmania mexicana, promastigotes, M379 strain, MTT
[12] = promastigotes, FCQEPS native isolate, MTT
[13] = Trypanosoma cruzi, read-out: T. cruzi IC50 A1, epimastigotes, A1 strain, 48 h, MTT

| IC50 [1, 8] | IC50 [2, 9] | IC50 [3, 10] | IC50 [4, 11] | Compound | CC50 at 48 h ([5]; J774.2 macrophage cells) | further results |
| --- | --- | --- | --- | --- | --- | --- |
| > 200 µM | > 200 µM | > 200 µM | 34.4 ± 2.8 µM | C=C(C)[C@H]1CC=C(CO)CC1 [Compound 15] | > 200 µM | trypanocidal activity A1 strain (in words) ([2]; epimastigotes, A1 strain): no biological activity |
| 104 ± 0.3 µM | 62.28 ± 0.2 µM | > 200 µM | > 200 µM | OCc1ccccc1 [Compound 1, benzyl alcohol] | 26.5 ± 2.1 µM |  |
|  |  |  |  | CC1CCC(C(C)C)C(O)C1 (racemic) [dl-menthol] |  | IC50 (T. cruzi; dl-menthol): 173 µM |
| > 200 µM | > 200 µM | > 200 µM | 52.08 ± 0.5 µM | COc1ccc(CCO)cc1 [Compound 8, 4-methoxyphenethyl alcohol] | > 200 µM | trypanocidal activity NINOA strain (in words) ([3]; epimastigotes, NINOA strain): no biological activity |
|  | 7.09 ± 0.1 µM | 19.3 ± 0.1 µM |  | CC1CS(=O)(=O)CCN1/N=C/c1ccc([N+](=O)[O-])o1 (stereo not shown) [Nfx, Nifurtimox, reference compound] |  |  |
|  |  |  |  | CNC[C@H](O)[C@@H](O)[C@H](O)[C@H](O)CO.[O]=[Sb](=[O])[OH] [Glu, Glucantime, reference compound] |  | IC50 [1, 12]: 134 ± 4.3 µM; IC50 ([4]; promastigotes, M379 strain, MTT): > 200 µM; CC50 ([6]; read-out: Cytotoxicity CC50 J774.2, mouse macrophages J774.2, 48 h, MTT): > 273 µM |
| 125 µM | > 200 µM | 119 µM | 40.1 ± 4.7 µM | OCc1ccc2ccccc2c1 [Compound 5, 2-naphtalenemethanol] | > 200 µM | IC50 [1, 12]: > 200 µM; IC50 ([3]; epimastigotes, NINOA strain, MTT): 125 ± 3.2 µM |
|  |  |  |  | Oc1ccc(/C=C/c2cc(O)cc(O)c2)cc1 [resveratrol] |  | IC50 (T. cruzi; resveratrol): 40 µM |
| > 200 µM | > 200 µM | 24.5 ± 0.7 µM | 81.5 ± 4.7 µM | CC(C)[C@H]1CC[C@H](C)C[C@@H]1O [Compound 14, l-(-)-menthol] | > 200 µM | trypanocidal activity A1 strain (in words) ([2]; epimastigotes, A1 strain): no biological activity; trypanocidal activity against the Tulahuén strain [7]: null trypanocidal activity |
|  |  |  |  | OCc1ccc2c(c1)OCO2 [Compound 6, piperonyl alcohol] |  | IC50 ([1]; Leishmania mexicana): 49.11 ± 0.1 µM; IC50 [2, 13]: > 200 µM; IC50 ([3]; Trypanosoma cruzi): > 200 µM; IC50 ([4]; Leishmania mexicana): 23.61 ± 0.2 µM; CC50 at 48 h [5]: 62.2 ± 3.2 µM |
| 125.4 ± 0.2 µM | 10.83 ± 0.1 µM | > 200 µM | 5.48 ± 0.1 µM | OC1CCCC1 [Compound 18, cyclopentyl alcohol] | 24.4 ± 3.2 µM |  |
| 42.24 ± 0.1 µM | > 200 µM | 48.24 ± 0.3 µM | 21.7 ± 1.7 µM | OCCc1ccccc1 [Compound 7, phenethyl alcohol] | 89.6 µM | cytotoxicity (in words) [6]: high cytotoxicity |
|  | 30.3 ± 0.03 µM | 39.08 ± 0.1 µM |  | O=C(Cn1ccnc1[N+](=O)[O-])NCc1ccccc1 [Bzn, Benznidazole, reference compound] |  |  |
|  | > 200 µM | > 200 µM | 14.2 ± 0.2 µM | Cc1ccccc1CO [Compound 3, 2-methylbenzyl alcohol] | 64.2 ± 0.2 µM | cytotoxicity (in words) [6]: high cytotoxicity |
| > 200 µM | 21.54 ± 0.2 µM | 53.6 ± 3.3 µM | 71 ± 1 µM | CC(C)=CCCC(C)CCO (stereo not drawn) [Compound 11, β-citronellol] | > 200 µM |  |
| > 200 µM | 50.4 ± 1.8 µM | 51.85 ± 0.01 µM | > 200 µM | Cc1ccc(CO)cc1 [Compound 2, 4-methylbenzyl alcohol] | > 200 µM |  |
| 29.06 ± 0.1 µM | 22.12 ± 0.2 µM | > 200 µM | 12.1 ± 0.2 µM | OCC=Cc1ccccc1 [Compound 9, cinnamyl alcohol] | 47.35 ± 0.1 µM | trypanocidal activity NINOA strain (in words) ([3]; epimastigotes, NINOA strain): no biological activity; cytotoxicity (in words) [6]: high cytotoxicity |
| > 200 µM | > 200 µM | 27.3 ± 1 µM | > 200 µM | CC(C)=CCO [Compound 10, prenol] | > 200 µM | leishmanicidal activity M379 strain (in words) ([4]; promastigotes, M379 strain): did not have leishmanicidal activity |
|  |  |  |  | CC(C)=CCC/C(C)=C\CO [Compound 13, nerol] |  | IC50 ([1]; Leishmania mexicana): > 200 µM; IC50 [2, 13]: 125 µM; IC50 ([2]; read-out: T. cruzi IC50 A1, epimastigotes, A1 strain, MTT): 65.7 ± 3.1 µM; IC50 ([3]; Trypanosoma cruzi): 58.3 ± 0.3 µM; IC50 ([4]; Leishmania mexicana): 106 ± 6 µM; CC50 at 48 h [5]: > 200 µM |

| Compound | IC50 [1, 8] | IC50 [2, 9] | IC50 [3, 10] | IC50 [4, 11] | CC50 at 48 h ([5]; J774.2 macrophage cells) | further results |
| --- | --- | --- | --- | --- | --- | --- |
| CC(C)=CCC/C(C)=C/CO [Compound 12, geraniol] | > 200 µM | 125 ± 5.5 µM | 41 ± 1.2 µM | 57 ± 5.1 µM |  | CC50 at 48 h [5]: > 200 µM |
| CC1=CC[C@@H](C(C)(C)O)CC1 [Compound 16, α-terpineol] | 75.57 ± 0.03 µM | 14 ± 0.2 µM | > 200 µM | 14 ± 0.2 µM |  | CC50 at 48 h [5]: 63.4 ± 0.9 µM |
